What was measured:
[1] = Stability of lipoic acid in ethanol/phosphate buffer solutions; assay type: physicochemical; conditions: ethanol/phosphate buffer 50 mM pH 6.8, 80:20 to 90:10; room temperature, protected from light
Protocol: In case the application in the solvent form is chosen, for example ethanol, acetone or other solvents or their mixtures thereof can be used. Also other mixtures of organic solvents with buffer solutions can be used, for example mixtures of ethanol and phosphate buffers. These mixtures can be composed by ethanol/phosphate buffer 50 mM pH:6.8 in proportions ranging from 80:20 to 90:10. In these solutions, lipoic acid is stable for at least 24 hours if stored at room temperature and protected from light. Lipoic acid is dissolved in these solvents at an optimal concentration ranging from 20 to 30% w/w, depending on the type of solvent or solvent mixture used. Application of the lipoic acid solution on the core is performed by wetting and subsequent evaporation of the solvent in presence of air at a temperature lower than 40° C., preferably ranging between 36 and 38° C. This procedure yields active cores with a low content of residual solvents.

[2] = gives polymerization products; cited from earlier work

time for which lipoic acid is stable in solution [1]: at least 24 hours
SMILES: O=C(O)CCCCC1CCSS1 (centres unmarked) [lipoic acid, 1,2-dithiolan-3-pentanoic acid]
stability under environmental conditions [2]: unstable under various environmental conditions
